Assay results from paper PMC4767141, “Discovery of Potent, Orally Bioavailable, Small-Molecule Inhibitors of WNT Signaling from a Cell-Based Pathway Screen” (Journal of Medicinal Chemistry, 2015).

How the values were obtained:
[1] = biological target: T1, A1 (h) (Homo sapiens, UniProt P30542); assay: CEREP binding panel; settings: antagonist radioligand, read-out: % Inhibition of Control Specific Binding
T1 construct: purchased Millipore KinaseProfiler (kinases); Cerep (receptors and ion channels)

[2] = system: α2 (non-selective); assay: CEREP binding panel; settings: 10 μM, antagonist radioligand
[3] = biological target: T2, β1 (h) (Homo sapiens, UniProt P08588); assay: CEREP binding panel; settings: agonist radioligand, read-out: % Inhibition of Control Specific Binding
T2 construct: purchased Millipore KinaseProfiler (kinases); Cerep (receptors and ion channels)

[4] = biological target: T3, B2 (h) (Homo sapiens, UniProt P30411); assay: CEREP binding panel; settings: agonist radioligand, read-out: % Inhibition of Control Specific Binding
T3 construct: purchased Millipore KinaseProfiler (kinases); Cerep (receptors and ion channels)

[5] = biological target: T4, CB1 (h) (Homo sapiens, UniProt P21554); assay: CEREP binding panel; settings: 10 μM, agonist radioligand
T4 construct: purchased Millipore KinaseProfiler (kinases); Cerep (receptors and ion channels)

[6] = biological target: T5, CCR1 (h) (Homo sapiens, UniProt P32246); assay: CEREP binding panel; settings: agonist radioligand, read-out: % Inhibition of Control Specific Binding
T5 construct: purchased Millipore KinaseProfiler (kinases); Cerep (receptors and ion channels)

[7] = biological target: T6, Y1 (h) (Homo sapiens, UniProt P25929); assay: CEREP binding panel; settings: agonist radioligand, read-out: % Inhibition of Control Specific Binding
T6 construct: purchased Millipore KinaseProfiler (kinases); Cerep (receptors and ion channels)

[8] = biological target: T7, Y2 (h) (Homo sapiens, UniProt P49146); assay: CEREP binding panel; settings: agonist radioligand, read-out: % Inhibition of Control Specific Binding
T7 construct: purchased Millipore KinaseProfiler (kinases); Cerep (receptors and ion channels)

[9] = biological target: T8, NTS1 (NT1) (h) (Homo sapiens, UniProt P30989); assay: CEREP binding panel; settings: agonist radioligand, read-out: % Inhibition of Control Specific Binding
T8 construct: purchased Millipore KinaseProfiler (kinases); Cerep (receptors and ion channels)

[10] = biological target: T9, 5-HT3 (h) (Homo sapiens, UniProt P46098); assay: CEREP binding panel; settings: antagonist radioligand, read-out: % Inhibition of Control Specific Binding
T9 construct: purchased Millipore KinaseProfiler (kinases); Cerep (receptors and ion channels)

[11] = biological target: T10, 5-HT6 (h) (Homo sapiens, UniProt P50406); assay: CEREP binding panel; settings: agonist radioligand, read-out: % Inhibition of Control Specific Binding
T10 construct: purchased Millipore KinaseProfiler (kinases); Cerep (receptors and ion channels)

[12] = system: SKCa channel; assay: CEREP binding panel; settings: 10 μM, antagonist radioligand
[13] = biological target: T11, AXL (Homo sapiens, UniProt P30530); assay: Millipore kinase panel; format: biochemical; settings: read-out: % Control
T11 construct: purchased Millipore KinaseProfiler (kinases); Cerep (receptors and ion channels)

[14] = biological target: T12, BRSK2 (Homo sapiens, UniProt Q8IWQ3); assay: Millipore kinase panel; format: biochemical; settings: read-out: % Control
T12 construct: purchased Millipore KinaseProfiler (kinases); Cerep (receptors and ion channels)

[15] = biological target: T13, CDK9/CYCLINT1 (Homo sapiens, UniProt P50750); assay: Millipore kinase panel; format: biochemical; settings: read-out: % Control
T13 construct: purchased Millipore KinaseProfiler (kinases); Cerep (receptors and ion channels)

[16] = biological target: T14, CHK1 (Homo sapiens, UniProt O14757); assay: Millipore kinase panel; format: biochemical; settings: read-out: % Control
T14 construct: purchased Millipore KinaseProfiler (kinases); Cerep (receptors and ion channels)

[17] = biological target: T15, DAPK2 (Homo sapiens, UniProt Q9UIK4); assay: Millipore kinase panel; format: biochemical; settings: read-out: % Control
T15 construct: purchased Millipore KinaseProfiler (kinases); Cerep (receptors and ion channels)

[18] = biological target: T16, EPHA7 (Homo sapiens, UniProt Q15375); assay: Millipore kinase panel; format: biochemical; settings: read-out: % Control
T16 construct: purchased Millipore KinaseProfiler (kinases); Cerep (receptors and ion channels)

[19] = biological target: T17, EPHA8 (Homo sapiens, UniProt P29322); assay: Millipore kinase panel; format: biochemical; settings: read-out: % Control
T17 construct: purchased Millipore KinaseProfiler (kinases); Cerep (receptors and ion channels)

[20] = biological target: T18, EPHB2 (Homo sapiens, UniProt P29323); assay: Millipore kinase panel; format: biochemical; settings: read-out: % Control
T18 construct: purchased Millipore KinaseProfiler (kinases); Cerep (receptors and ion channels)

[21] = biological target: T19, FER (Homo sapiens, UniProt P16591); assay: Millipore kinase panel; format: biochemical; settings: read-out: % Control
T19 construct: purchased Millipore KinaseProfiler (kinases); Cerep (receptors and ion channels)

[22] = biological target: T20, HIPK3 (Homo sapiens, UniProt Q9H422); assay: Millipore kinase panel; format: biochemical; settings: read-out: % Control
T20 construct: purchased Millipore KinaseProfiler (kinases); Cerep (receptors and ion channels)

[23] = biological target: T21, IKKBETA (Homo sapiens, UniProt O14920); assay: Millipore kinase panel; format: biochemical; settings: read-out: % Control
T21 construct: purchased Millipore KinaseProfiler (kinases); Cerep (receptors and ion channels)

[24] = biological target: T22, JNK2ALPHA2 (Homo sapiens, UniProt P45984); assay: Millipore kinase panel; format: biochemical; settings: read-out: % Control
T22 construct: purchased Millipore KinaseProfiler (kinases); Cerep (receptors and ion channels)

[25] = biological target: T23, JNK3 (Homo sapiens, UniProt P53779); assay: Millipore kinase panel; format: biochemical; settings: read-out: % Control
T23 construct: purchased Millipore KinaseProfiler (kinases); Cerep (receptors and ion channels)

[26] = biological target: T24, KDR (Homo sapiens, UniProt P35968); assay: Millipore kinase panel; format: biochemical; settings: read-out: % Control
T24 construct: purchased Millipore KinaseProfiler (kinases); Cerep (receptors and ion channels)

[27] = biological target: T25, LIMK1 (Homo sapiens, UniProt P53667); assay: Millipore kinase panel; format: biochemical; settings: read-out: % Control
T25 construct: purchased Millipore KinaseProfiler (kinases); Cerep (receptors and ion channels)

[28] = biological target: T26, MAPK1 (Homo sapiens, UniProt P27361); assay: Millipore kinase panel; format: biochemical; settings: read-out: % Control
T26 construct: purchased Millipore KinaseProfiler (kinases); Cerep (receptors and ion channels)

[29] = biological target: T27, MRCKALPHA (Homo sapiens, UniProt Q5VT25); assay: Millipore kinase panel; format: biochemical; settings: read-out: % Control
T27 construct: purchased Millipore KinaseProfiler (kinases); Cerep (receptors and ion channels)

[30] = biological target: T28, NEK3 (Homo sapiens, UniProt P51956); assay: Millipore kinase panel; format: biochemical; settings: read-out: % Control
T28 construct: purchased Millipore KinaseProfiler (kinases); Cerep (receptors and ion channels)

[31] = biological target: T29, PDK1 (Homo sapiens, UniProt O15530); assay: Millipore kinase panel; format: biochemical; settings: read-out: % Control
T29 construct: purchased Millipore KinaseProfiler (kinases); Cerep (receptors and ion channels)

[32] = biological target: T30, PRK2 (Homo sapiens, UniProt Q16513); assay: Millipore kinase panel; format: biochemical; settings: read-out: % Control
T30 construct: purchased Millipore KinaseProfiler (kinases); Cerep (receptors and ion channels)

[33] = biological target: T31, PTK5 (Homo sapiens, UniProt P42685); assay: Millipore kinase panel; format: biochemical; settings: read-out: % Control
T31 construct: purchased Millipore KinaseProfiler (kinases); Cerep (receptors and ion channels)

[34] = biological target: T32, RSE (Homo sapiens, UniProt Q06418); assay: Millipore kinase panel; format: biochemical; settings: read-out: % Control
T32 construct: purchased Millipore KinaseProfiler (kinases); Cerep (receptors and ion channels)

[35] = biological target: T33, SAPK4 (Homo sapiens, UniProt O15264); assay: Millipore kinase panel; format: biochemical; settings: read-out: % Control
T33 construct: purchased Millipore KinaseProfiler (kinases); Cerep (receptors and ion channels)

[36] = biological target: T34, TSSK1 (Homo sapiens, UniProt Q9BXA7); assay: Millipore kinase panel; format: biochemical; settings: read-out: % Control
T34 construct: purchased Millipore KinaseProfiler (kinases); Cerep (receptors and ion channels)

[37] = biological target: T35, WNK2 (Homo sapiens, UniProt Q9Y3S1); assay: Millipore kinase panel; format: biochemical; settings: read-out: % Control
T35 construct: purchased Millipore KinaseProfiler (kinases); Cerep (receptors and ion channels)

[38] = biological target: T36, ZIPK (Homo sapiens, UniProt O43293); assay: Millipore kinase panel; format: biochemical; settings: read-out: % Control
T36 construct: purchased Millipore KinaseProfiler (kinases); Cerep (receptors and ion channels)

[39] = biological target: T37, RSK4 (Homo sapiens, UniProt Q9UK32); assay: Millipore kinase panel; format: biochemical; settings: read-out: % Control
T37 construct: purchased Millipore KinaseProfiler (kinases); Cerep (receptors and ion channels)

[40] = biological target: T38, GCK (Homo sapiens, UniProt Q12851); assay: Millipore kinase panel; format: biochemical; settings: read-out: % Control
T38 construct: purchased Millipore KinaseProfiler (kinases); Cerep (receptors and ion channels)

[41] = biological target: T39, PIM-3 (Homo sapiens, UniProt Q86V86); assay: Millipore kinase panel; format: biochemical; settings: read-out: % Control
T39 construct: purchased Millipore KinaseProfiler (kinases); Cerep (receptors and ion channels)

[42] = biological target: T40, TAO3 (Homo sapiens, UniProt Q9H2K8); assay: Millipore kinase panel; format: biochemical; settings: read-out: % Control
T40 construct: purchased Millipore KinaseProfiler (kinases); Cerep (receptors and ion channels)

[43] = biological target: T41, ULK2 (Homo sapiens, UniProt Q8IYT8); assay: Millipore kinase panel; format: biochemical; settings: read-out: % Control
T41 construct: purchased Millipore KinaseProfiler (kinases); Cerep (receptors and ion channels)

[44] = biological target: T42, PLK1 (Homo sapiens, UniProt P53350); assay: Millipore kinase panel; format: biochemical; settings: read-out: % Control
T42 construct: purchased Millipore KinaseProfiler (kinases); Cerep (receptors and ion channels)

T14 sequence (O14757 whole entry): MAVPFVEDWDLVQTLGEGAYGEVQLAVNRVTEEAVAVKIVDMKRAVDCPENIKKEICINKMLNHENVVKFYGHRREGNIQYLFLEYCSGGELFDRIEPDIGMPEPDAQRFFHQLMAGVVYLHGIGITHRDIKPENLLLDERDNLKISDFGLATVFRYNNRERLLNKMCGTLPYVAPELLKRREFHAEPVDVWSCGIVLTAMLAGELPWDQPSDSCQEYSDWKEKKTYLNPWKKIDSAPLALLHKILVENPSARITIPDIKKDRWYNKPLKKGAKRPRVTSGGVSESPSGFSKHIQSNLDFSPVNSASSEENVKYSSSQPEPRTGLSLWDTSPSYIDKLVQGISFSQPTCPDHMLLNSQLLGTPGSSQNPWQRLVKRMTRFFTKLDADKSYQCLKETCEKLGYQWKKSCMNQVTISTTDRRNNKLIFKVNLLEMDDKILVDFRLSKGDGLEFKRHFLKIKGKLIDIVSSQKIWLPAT
T34 sequence (Q9BXA7 whole entry): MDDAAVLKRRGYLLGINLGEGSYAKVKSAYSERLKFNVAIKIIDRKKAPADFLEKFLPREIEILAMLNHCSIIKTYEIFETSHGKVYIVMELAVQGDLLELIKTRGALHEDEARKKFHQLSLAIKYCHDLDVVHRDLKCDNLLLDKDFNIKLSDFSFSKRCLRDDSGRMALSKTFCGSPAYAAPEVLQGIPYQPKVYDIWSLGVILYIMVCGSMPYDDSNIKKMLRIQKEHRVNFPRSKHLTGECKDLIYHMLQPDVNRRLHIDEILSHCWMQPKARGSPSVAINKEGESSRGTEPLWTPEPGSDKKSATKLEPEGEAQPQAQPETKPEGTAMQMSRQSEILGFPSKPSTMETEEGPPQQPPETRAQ
T20 sequence (Q9H422 whole entry): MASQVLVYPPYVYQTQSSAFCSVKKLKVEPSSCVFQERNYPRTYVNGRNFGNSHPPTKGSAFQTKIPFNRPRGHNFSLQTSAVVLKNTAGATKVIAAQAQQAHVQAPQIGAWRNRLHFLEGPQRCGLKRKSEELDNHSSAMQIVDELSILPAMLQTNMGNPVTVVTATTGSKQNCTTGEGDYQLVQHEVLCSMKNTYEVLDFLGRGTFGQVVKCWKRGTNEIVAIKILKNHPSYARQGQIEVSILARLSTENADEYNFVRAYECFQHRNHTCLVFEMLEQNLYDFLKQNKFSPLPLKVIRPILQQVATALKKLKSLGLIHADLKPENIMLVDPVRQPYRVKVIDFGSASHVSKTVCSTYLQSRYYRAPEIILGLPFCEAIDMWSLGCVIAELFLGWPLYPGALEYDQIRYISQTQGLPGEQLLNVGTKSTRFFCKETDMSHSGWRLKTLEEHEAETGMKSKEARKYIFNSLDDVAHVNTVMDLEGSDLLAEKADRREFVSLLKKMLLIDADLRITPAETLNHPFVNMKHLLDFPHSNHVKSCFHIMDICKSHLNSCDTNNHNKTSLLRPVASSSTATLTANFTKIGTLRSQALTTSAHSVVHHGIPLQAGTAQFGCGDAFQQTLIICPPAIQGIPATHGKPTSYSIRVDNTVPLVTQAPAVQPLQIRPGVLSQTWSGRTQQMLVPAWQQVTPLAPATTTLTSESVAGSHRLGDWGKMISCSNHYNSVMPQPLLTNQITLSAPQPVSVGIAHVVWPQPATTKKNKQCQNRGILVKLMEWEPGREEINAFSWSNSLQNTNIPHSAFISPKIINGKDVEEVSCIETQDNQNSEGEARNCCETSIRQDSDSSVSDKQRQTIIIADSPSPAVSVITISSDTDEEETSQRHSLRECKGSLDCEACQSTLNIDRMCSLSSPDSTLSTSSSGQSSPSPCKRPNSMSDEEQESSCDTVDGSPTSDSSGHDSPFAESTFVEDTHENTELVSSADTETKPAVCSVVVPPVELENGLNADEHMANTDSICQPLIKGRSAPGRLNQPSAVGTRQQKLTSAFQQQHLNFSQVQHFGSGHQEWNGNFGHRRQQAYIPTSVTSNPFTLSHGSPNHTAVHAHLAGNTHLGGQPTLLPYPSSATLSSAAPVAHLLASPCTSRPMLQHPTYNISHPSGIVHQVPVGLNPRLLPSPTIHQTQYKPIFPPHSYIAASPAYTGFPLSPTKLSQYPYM
T27 sequence (Q5VT25 whole entry): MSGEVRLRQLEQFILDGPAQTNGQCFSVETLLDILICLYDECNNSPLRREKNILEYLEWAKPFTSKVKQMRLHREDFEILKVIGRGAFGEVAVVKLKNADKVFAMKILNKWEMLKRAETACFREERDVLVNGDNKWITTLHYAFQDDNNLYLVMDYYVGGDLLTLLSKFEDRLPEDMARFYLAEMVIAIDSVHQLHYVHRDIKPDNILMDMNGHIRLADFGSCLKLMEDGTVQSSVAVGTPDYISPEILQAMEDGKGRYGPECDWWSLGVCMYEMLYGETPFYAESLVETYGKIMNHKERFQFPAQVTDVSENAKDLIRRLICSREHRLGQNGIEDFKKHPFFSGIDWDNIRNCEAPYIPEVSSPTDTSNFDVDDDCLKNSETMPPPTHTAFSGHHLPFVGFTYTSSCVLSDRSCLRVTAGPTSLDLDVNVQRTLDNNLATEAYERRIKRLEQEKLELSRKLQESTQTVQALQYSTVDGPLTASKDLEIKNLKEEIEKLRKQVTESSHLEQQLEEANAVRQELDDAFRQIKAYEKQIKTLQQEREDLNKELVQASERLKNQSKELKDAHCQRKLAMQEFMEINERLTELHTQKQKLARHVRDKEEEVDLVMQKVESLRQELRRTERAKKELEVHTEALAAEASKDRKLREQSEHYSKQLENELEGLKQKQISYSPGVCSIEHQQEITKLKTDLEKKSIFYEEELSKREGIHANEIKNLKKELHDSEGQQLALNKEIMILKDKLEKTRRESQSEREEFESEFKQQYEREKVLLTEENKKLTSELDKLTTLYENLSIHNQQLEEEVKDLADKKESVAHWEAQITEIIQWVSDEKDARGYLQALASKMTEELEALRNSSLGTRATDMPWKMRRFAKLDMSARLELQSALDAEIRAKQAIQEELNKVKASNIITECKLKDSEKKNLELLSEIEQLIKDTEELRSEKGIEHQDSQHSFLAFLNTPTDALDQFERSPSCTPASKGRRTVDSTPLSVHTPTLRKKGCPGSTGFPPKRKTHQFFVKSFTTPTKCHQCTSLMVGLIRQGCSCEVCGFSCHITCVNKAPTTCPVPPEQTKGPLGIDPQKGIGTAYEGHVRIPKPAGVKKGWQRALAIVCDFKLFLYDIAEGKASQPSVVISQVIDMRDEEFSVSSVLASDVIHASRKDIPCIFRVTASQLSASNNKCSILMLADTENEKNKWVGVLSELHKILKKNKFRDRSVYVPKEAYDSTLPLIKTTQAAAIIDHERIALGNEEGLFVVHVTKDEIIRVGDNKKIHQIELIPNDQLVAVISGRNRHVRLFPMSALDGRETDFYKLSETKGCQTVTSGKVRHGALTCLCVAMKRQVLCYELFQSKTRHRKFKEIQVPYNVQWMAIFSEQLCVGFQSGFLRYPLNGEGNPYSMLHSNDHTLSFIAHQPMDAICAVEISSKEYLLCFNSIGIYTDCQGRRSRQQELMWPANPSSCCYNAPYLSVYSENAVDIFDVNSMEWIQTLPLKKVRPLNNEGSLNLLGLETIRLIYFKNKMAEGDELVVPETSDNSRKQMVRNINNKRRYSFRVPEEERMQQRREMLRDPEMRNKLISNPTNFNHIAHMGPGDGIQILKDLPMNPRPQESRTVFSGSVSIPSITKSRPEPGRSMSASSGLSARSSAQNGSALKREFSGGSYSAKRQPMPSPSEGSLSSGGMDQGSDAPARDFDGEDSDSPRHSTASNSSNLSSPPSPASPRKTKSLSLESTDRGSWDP
T8 sequence (P30989 whole entry): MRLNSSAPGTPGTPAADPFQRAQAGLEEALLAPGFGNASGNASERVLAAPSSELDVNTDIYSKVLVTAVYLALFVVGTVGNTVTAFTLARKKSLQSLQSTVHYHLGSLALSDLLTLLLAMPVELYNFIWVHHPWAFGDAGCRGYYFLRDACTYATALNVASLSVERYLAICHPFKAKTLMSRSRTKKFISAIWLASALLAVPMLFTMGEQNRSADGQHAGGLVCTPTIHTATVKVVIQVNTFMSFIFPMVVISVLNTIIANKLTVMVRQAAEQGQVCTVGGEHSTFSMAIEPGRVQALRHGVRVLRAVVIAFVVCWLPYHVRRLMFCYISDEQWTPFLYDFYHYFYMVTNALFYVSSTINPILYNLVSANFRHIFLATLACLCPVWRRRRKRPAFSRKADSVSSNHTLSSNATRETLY
T36 sequence (O43293 whole entry): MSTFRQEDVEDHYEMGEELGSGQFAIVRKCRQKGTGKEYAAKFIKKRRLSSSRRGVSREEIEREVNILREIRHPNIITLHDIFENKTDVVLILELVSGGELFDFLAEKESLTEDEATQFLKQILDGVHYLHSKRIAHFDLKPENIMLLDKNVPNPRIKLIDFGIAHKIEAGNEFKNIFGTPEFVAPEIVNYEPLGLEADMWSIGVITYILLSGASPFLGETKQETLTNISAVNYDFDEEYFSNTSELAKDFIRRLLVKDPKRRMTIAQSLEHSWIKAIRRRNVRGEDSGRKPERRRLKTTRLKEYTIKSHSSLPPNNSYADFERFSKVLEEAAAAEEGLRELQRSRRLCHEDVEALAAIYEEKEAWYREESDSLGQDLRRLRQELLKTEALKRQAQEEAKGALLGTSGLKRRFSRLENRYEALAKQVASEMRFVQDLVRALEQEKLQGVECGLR

Cn1cc(-c2ccc(-c3cncc(Cl)c3N3CCC4(CCNC4=O)CC3)cc2)cn1 [Compound 74, 8-(3-Chloro-5-(4-(1-methyl-1H-pyrazol-4-yl)phenyl)pyridin-4-yl)-2,8-diazaspiro[4.5]decan-1-one]
inhibition at 10 µM [1]: -12%
% Inhibition of Control Specific Binding [2]: 0%
inhibition at 10 µM [3]: 5%
inhibition at 10 µM [4]: 0%
% Inhibition of Control Specific Binding [5]: 2%
inhibition at 10 µM [6]: -4%
inhibition at 10 µM [7]: -7%
inhibition at 10 µM [8]: -2%
inhibition at 10 µM [9]: -8%
inhibition at 10 µM [10]: 9%
inhibition at 10 µM [11]: 3%
% Inhibition of Control Specific Binding [12]: 3%
remaining activity at 1 µM [13]: -18%
remaining activity at 1 µM [14]: -4%
remaining activity at 1 µM [15]: -29%
remaining activity at 1 µM [16]: -17%
remaining activity at 1 µM [17]: 13%
remaining activity at 1 µM [18]: 6%
remaining activity at 1 µM [19]: -7%
remaining activity at 1 µM [20]: 7%
remaining activity at 1 µM [21]: 11%
remaining activity at 1 µM [22]: -2%
remaining activity at 1 µM [23]: 2%
remaining activity at 1 µM [24]: 5%
remaining activity at 1 µM [25]: -7%
remaining activity at 1 µM [26]: 10%
remaining activity at 1 µM [27]: 0%
remaining activity at 1 µM [28]: 11%
remaining activity at 1 µM [29]: -4%
remaining activity at 1 µM [30]: 15%
remaining activity at 1 µM [31]: -12%
remaining activity at 1 µM [32]: 0%
remaining activity at 1 µM [33]: -18%
remaining activity at 1 µM [34]: -17%
remaining activity at 1 µM [35]: -4%
remaining activity at 1 µM [36]: 2%
remaining activity at 1 µM [37]: 0%
remaining activity at 1 µM [38]: 6%
remaining activity at 1 µM [39]: -17%
remaining activity at 1 µM [40]: -28%
remaining activity at 1 µM [41]: 8%
remaining activity at 1 µM [42]: -24%
remaining activity at 1 µM [43]: -2%
remaining activity at 1 µM [44]: -4%
